Data reported in patent US20190119298A1, “FUSED 3-PHENYLTETRAMIC ACID DERIVATIVES HAVING HERBICIDAL ACTION” (Bayer CropScience Aktiengesellschaft, priority 2016, published 2019).

Tests used:
Assay type in all cases: in vivo
Lolium multiflorum [1] = assay: Pre-emergence herbicidal effect; conditions: 320 g/ha, scored visually after 3 weeks vs untreated controls, 100% = plants have died
Procedure, shortened: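 Seeds sown in sandy loam and covered; compounds as WP or EC applied to the soil surface pre-emergence at 600 to 800 L/ha water with 0.2% wetting agent. Greenhouse growth for 3 weeks, then damage scored visually versus untreated controls (100% = plants dead, 0% = like control).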

Alopecurus myosuroides [2] = assay: Pre-emergence herbicidal effect; conditions: 320 g/ha, scored visually after 3 weeks vs untreated controls, 100% = plants have died
Procedure, shortened: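 Seeds sown in sandy loam and covered; WP- or EC-formulated compounds sprayed onto covering soil at 600–800 L/ha water with 0.2% wetting agent. Greenhouse-grown; damage scored visually after 3 weeks versus untreated controls (100% = plants died, 0% = like control).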

Avena fatua [3] = assay: Post-emergence herbicidal effect; conditions: one-leaf stage, 320 g/ha, assessed visually after about 3 weeks, 100% = plants have died
Procedure, shortened: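 Greenhouse-grown plants in sandy loam treated at one-leaf stage, 2–3 weeks after sowing, by spraying WP or EC formulations as aqueous suspension/emulsion at 600–800 L/ha water with 0.2% wetting agent. After about 3 weeks, effect scored visually versus untreated controls (0% = like control, 100% = plants dead).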

Lolium multiflorum [4] = assay: Post-emergence herbicidal effect; conditions: one-leaf stage, 320 g/ha, assessed visually after about 3 weeks, 100% = plants have died
Procedure, shortened: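 Plants in sandy loam treated post-emergence at one-leaf stage (2–3 weeks after sowing) with WP or EC formulations sprayed at 600–800 L/ha water plus 0.2% wetting agent. After about 3 weeks in the greenhouse, percent herbicidal action rated visually against untreated controls (100% = plants dead).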

Setaria viridis [5] = assay: Post-emergence herbicidal effect; conditions: one-leaf stage, 320 g/ha, assessed visually after about 3 weeks, 100% = plants have died
Procedure, shortened: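 Greenhouse plants grown in sandy loam were sprayed at the one-leaf stage, 2-3 weeks after sowing. Compounds were applied as WP or EC formulations in 600-800 L/ha water plus 0.2% wetting agent. About 3 weeks later, damage was scored visually against untreated controls (0% = like control, 100% = dead plants).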

Avena fatua [6] = assay: Pre-emergence herbicidal effect; conditions: 320 g/ha, scored visually after 3 weeks vs untreated controls, 100% = plants have died
Procedure, shortened: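 Weed and crop seeds sown in sandy loam were treated pre-emergence on the soil surface with WP or EC formulations at a water rate of 600 to 800 L/ha plus 0.2% wetting agent. Plants grown in a greenhouse; damage scored visually after 3 weeks as percent activity relative to untreated controls (100% = dead).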

Echinochloa crus-galli [7] = assay: Pre-emergence herbicidal effect; conditions: 320 g/ha, scored visually after 3 weeks vs untreated controls, 100% = plants have died
Procedure, shortened: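 Wettable powder or emulsion concentrate sprayed onto soil covering freshly sown seeds in sandy loam, 600 to 800 L/ha water with 0.2% wetting agent. Pots kept in greenhouse. Damage scored visually after 3 weeks against untreated controls, 0-100% activity.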

Echinochloa crus-galli [8] = assay: Post-emergence herbicidal effect; conditions: one-leaf stage, 320 g/ha, assessed visually after about 3 weeks, 100% = plants have died
Procedure, shortened: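 Greenhouse plants in sandy loam were sprayed at the one-leaf stage with WP or EC formulations at 600 to 800 L/ha water with 0.2% wetting agent. After about 3 weeks, damage was scored visually in % against untreated controls (100% = dead).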

Setaria viridis [9] = assay: Pre-emergence herbicidal effect; conditions: 320 g/ha, scored visually after 3 weeks vs untreated controls, 100% = plants have died
Procedure, shortened: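 Pre-emergence: WP or EC formulations sprayed onto the soil surface over sown seeds in sandy loam at 600–800 L/ha water with 0.2% wetting agent. Plants kept in a greenhouse; damage scored visually after 3 weeks as % activity versus untreated controls (100% = dead).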

Alopecurus myosuroides [10] = assay: Post-emergence herbicidal effect; conditions: one-leaf stage, 320 g/ha, assessed visually after about 3 weeks, 100% = plants have died
Procedure, shortened: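 Monocot and dicot plants grown in sandy loam in a greenhouse were sprayed at the one-leaf stage, 2–3 weeks after sowing, with WP or EC formulations in 600–800 L/ha water plus 0.2% wetting agent. Damage scored visually after about 3 weeks versus untreated controls (0% like control, 100% dead).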

Compound: CCc1cccc(C)c1C1=C(OC(=O)C(C)(C)C)C2CCOCCN2C1=O (stereo not shown) [Ib-1-14]
- Pre-emergence action LOLMU (herbicidal activity in percent) (Lolium multiflorum [1]): 100%
- Pre-emergence action ALOMY (herbicidal activity in percent) (Alopecurus myosuroides [2]): 80%
- Post-emergence effectiveness AVEFA (herbicidal action in percent) (Avena fatua [3]): 100%
- Post-emergence effectiveness LOLMU (herbicidal action in percent) (Lolium multiflorum [4]): 100%
- Post-emergence effectiveness SETVI (herbicidal action in percent) (Setaria viridis [5]): 100%
- Pre-emergence action AVEFA (herbicidal activity in percent) (Avena fatua [6]): 90%
- Pre-emergence action ECHCG (herbicidal activity in percent) (Echinochloa crus-galli [7]): 100%
- Post-emergence effectiveness ECHCG (herbicidal action in percent) (Echinochloa crus-galli [8]): 100%
- Pre-emergence action SETVI (herbicidal activity in percent) (Setaria viridis [9]): 100%
- Post-emergence effectiveness ALOMY (herbicidal action in percent) (Alopecurus myosuroides [10]): 90%
